Source: article PMC11447181 (Nature Communications, 2024)
Entries after “also recorded” stand apart in the source; their conditions may differ.

Assays:
[1] = target: T1, hSLC19A3-wt overexpressed in Expi293F cells (Homo sapiens, UniProt Q9BZV2); experiment: Mass spectrometry-based cellular thiamine-d3 uptake assay; format: cell-based; conditions: 200 μM compound, 2 μM thiamine-d3, 5 min, n = 3
T1 construct: full-length, wildtype human SLC19A3; expressed in transfected cells; host or cells: Expi293F
T1 sequence (Q9BZV2 with tags, fused parts or gaps): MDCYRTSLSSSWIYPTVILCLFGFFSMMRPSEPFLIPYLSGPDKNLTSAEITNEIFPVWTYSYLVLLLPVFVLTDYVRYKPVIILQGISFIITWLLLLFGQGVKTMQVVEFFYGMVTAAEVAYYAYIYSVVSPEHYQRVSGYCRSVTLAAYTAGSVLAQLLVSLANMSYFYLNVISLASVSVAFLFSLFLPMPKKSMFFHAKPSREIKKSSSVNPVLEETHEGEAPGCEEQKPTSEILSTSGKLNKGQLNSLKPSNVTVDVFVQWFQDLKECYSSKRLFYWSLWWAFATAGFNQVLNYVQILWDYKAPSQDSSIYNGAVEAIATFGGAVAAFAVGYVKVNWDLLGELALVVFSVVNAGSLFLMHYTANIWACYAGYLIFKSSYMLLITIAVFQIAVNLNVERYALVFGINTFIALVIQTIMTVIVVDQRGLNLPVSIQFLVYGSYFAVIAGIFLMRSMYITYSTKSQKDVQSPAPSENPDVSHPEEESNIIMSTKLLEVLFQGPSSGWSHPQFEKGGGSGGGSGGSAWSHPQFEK
Protocol: The cells were then pelleted for 5 min at 250×g and resuspended in 1×PBS (pH 7.4) at a cell density of 2 million cells per mL. The cell suspension was subsequently transferred to a 96-deep well plate in three technical replicates per condition (n = 3, 1 mL per well, corresponding to 2 million cells per condition). 200 μM of the selected compounds were added to the respective wells and the cells were incubated for 1 min on a shaking platform. […] Afterwards, the cells were pelleted for 5 min at 500×g and washed 3× with 1 mL 1×PBS (pH7.4), before transferring them to a fresh 96-deep well plate. The cell pellets were stored at –70 °C. For the LC-MS/MS analysis, the samples were extracted by adding 500 µL of a mixture of H2O:MeOH:ACN (1:1:1, v/v), containing 5% (v/v) formic acid. After vortexing and ultrasonication in a water bath for 5 min at 4 °C, samples were incubated for 20 min at –20 °C. […] The supernatants were then transferred for LC-MS analysis, which was initiated within one hour after sample preparation. LC-MS/MS analysis was performed on a Vanquish UHPLC system coupled to an Orbitrap Exploris 240 high-resolution mass spectrometer (Thermo Fisher Scientific, MA, USA) in positive ESI (electrospray ionization) mode. Chromatographic separation was carried out on an Atlantis Premier BEH Z-HILIC column (Waters, MA, USA; 2.1 mm × 100 mm, 1.7 µm) at a flow rate of 0.25 mL/min. The mobile phase consisted of water:acetonitrile (9:1, v/v; mobile phase phase A) and acetonitrile:water (9:1, v/v; mobile phase B), which were modified with a total buffer concentration of 10 mM ammonium formate. The aqueous portion of each mobile phase was adjusted to pH 3.0 via addition of formic acid. The following gradient (8 min total run time including re-equilibration) was applied (time [min]/%B): 0/90, 3/85, 3.5/60, 4/60, 5/90, 8/90. Column temperature was maintained at 40 °C, the autosampler was set to 4 °C and sample injection volume was set to 3 µL. Analytes were recorded via a full scan with a mass resolving power of 120,000 over a mass range from 60 to 900 m/z (scan time: 100 ms, RF lens: 70%).
All experimental samples were measured in a randomized manner. Pooled quality control (QC) samples were prepared by mixing equal aliquots from each processed sample. Multiple QCs were injected at the beginning of the analysis in order to equilibrate the analytical system. A QC sample was analyzed after every 6th experimental sample to monitor instrument performance throughout the sequence. For determination of background signals and subsequent background subtraction, an additional processed blank sample was recorded. Data was processed using TraceFinder 5.1 and raw peak area data was exported for relative metabolite quantification.

[2] = target: T2, hSLC19A3-wt (Homo sapiens, UniProt Q9BZV2); experiment: nanoDSF thermal shift assay / apparent binding affinity, wildtype transporter; conditions: for thermal shift / interaction with hSLC19A3, in words: thermal shift screen at 20 μM and 200 μM compound
T2 construct: full-length, wildtype human SLC19A3; made in house; host or cells: Expi293F
T2 sequence (Q9BZV2 with tags, fused parts or gaps): as above
Protocol: The thermal stability of the hSLC19A3 constructs and their binding affinities for small molecules were determined by nanoDSF, using a Prometheus NT.48 (NanoTemper Technologies). For sample preparation, the protein was diluted to a final concentration of 4 μM in SEC buffer and supplied with the respective compounds in a concentration range from 2 μM to 2 mM. Before measurement, the samples were incubated for 30 min at room temperature. Melting scans were performed at a temperature range from 20 to 95 °C with a temperature increment of 1 °C per minute. Thermal unfolding curves were recorded by measuring the ratio of the tryptophan-fluorescence at 350 nm (F350) and 330 nm (F330). The protein melting temperature (Tm) of a given sample was determined as the inflection point of the thermal unfolding curves, or the local maximum of its first derivative. The measured curves were analysed using the manufacturer’s software (PR.ThermControl, v 2.1.2, NanoTemper Technologies). Based on the determined Tm values, ligand induced thermal shifts (ΔTm) were determined as the difference between the melting temperature of the ligand-bound state (Tm) and the apo state (Tm^apo).
As R, Tstd and L are known and the ΔTm and Tm^apo are experimentally determined, non-linear curve fitting can be used to estimate Ea1 and Kd,app.

[3] = system: SLC19A3; conditions: cited from earlier work
[4] = target: glycosylation-free mutant of hSLC19A3 (hSLC19A3-gf) (human, UniProt Q9BZV2 1-496, Asn45 mutated to glutamine | Asn166 mutated to glutamine); experiment: BLI
Chain of glycosylation-free mutant of hSLC19A3 (hSLC19A3-gf) (Q9BZV2 other isoform, or with tags, fused parts or gaps with the stated changes): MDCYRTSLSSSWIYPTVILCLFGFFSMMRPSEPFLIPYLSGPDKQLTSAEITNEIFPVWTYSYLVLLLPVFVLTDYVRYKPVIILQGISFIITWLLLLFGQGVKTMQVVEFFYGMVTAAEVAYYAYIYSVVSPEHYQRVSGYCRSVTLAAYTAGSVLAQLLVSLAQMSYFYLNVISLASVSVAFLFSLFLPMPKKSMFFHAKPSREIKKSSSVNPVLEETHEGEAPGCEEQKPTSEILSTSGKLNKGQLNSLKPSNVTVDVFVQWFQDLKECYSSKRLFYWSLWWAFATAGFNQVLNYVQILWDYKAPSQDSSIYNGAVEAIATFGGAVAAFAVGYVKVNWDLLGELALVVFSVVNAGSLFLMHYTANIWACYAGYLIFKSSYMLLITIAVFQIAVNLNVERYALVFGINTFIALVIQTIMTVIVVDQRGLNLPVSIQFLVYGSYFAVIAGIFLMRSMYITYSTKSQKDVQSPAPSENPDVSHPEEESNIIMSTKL

| Molecule | inhibition of thiamine uptake through hSLC19A3, in words [1] | thermal shift / interaction with hSLC19A3, in words [2] | other results |
| --- | --- | --- | --- |
| Cc1nc(Nc2ncc(C(=O)Nc3c(C)cccc3Cl)s2)cc(N2CCN(CCO)CC2)n1 [dasatinib] | interfered with thiamine-uptake through hSLC19A3 |  |  |
| CCS(=O)(=O)N1CC(CC#N)(n2cc(-c3ncnc4[nH]ccc34)cn2)C1 [baricitinib] |  | did not stabilise hSLC19A3 |  |
| Cc1ncc(C[n+]2csc(CCO[P@](=O)(O)OP(=O)(O)O)c2C)c(N)n1 [thiamine-pp, thiamine pyrophosphate] |  | does not stabilise the transporter at all |  |
| N#CCNC(=O)c1ccc(-c2ccnc(Nc3ccc(N4CCOCC4)cc3)n2)cc1 [momelotinib] |  | did not stabilise hSLC19A3 |  |
| C[C@@H]1CCN(C(=O)CC#N)C[C@@H]1N(C)c1ncnc2[nH]ccc12 [tofacitinib] | shows no inhibitory effect on thiamine transport | stabilising hSLC19A3 |  |
| O=C(O)CCCC[C@@H]1SC[C@@H]2NC(=O)N[C@@H]21 [biotin] |  | does not interact with the transporter |  |
| Cc1ncc(C[n+]2csc(CCO)c2C)c(=O)[nH]1 [oxythiamine] |  | strongly decreased affinity and a lower thermostabilisation of the transporter; also recorded: stabilises the transporter only weakly |  |
| CN(C)CCCC1(c2ccc(F)cc2)OCc2cc(C#N)ccc21 (stereo not drawn) [citalopram] | interferes with thiamine uptake | also interact with hSLC19A3 |  |
| COc1cc2ncnc(Nc3ccc(F)c(Cl)c3)c2cc1OCCCN1CCOCC1 [gefitinib] | interfered with thiamine-uptake through hSLC19A3 |  |  |
| CN[C@H]1CC[C@@H](c2ccc(Cl)c(Cl)c2)c2ccccc21 [sertraline] |  |  | ΔTm ([2]; at low micromolar concentrations, nanoDSF): 2.5 ± 0.4 °C |
| CCCc1ncc(C[n+]2ccccc2C)c(N)n1 [amprolium] |  | strongly stabilised the transporter against heat unfolding in a concentration-dependent manner |  |
| Cc1ncc(C[n+]2csc(CCOP(=O)(O)O)c2C)c(N)n1 [thiamine-p, thiamine monophosphate] |  | strongly reduced affinity |  |
| CCN(CCO)CCCC(C)Nc1ccnc2cc(Cl)ccc12 (stereo not drawn) [hydroxychloroquine] |  | strongly stabilises hSLC19A3 | Kd [2]: 170 ± 55 nM |
| CN(C)CCC=C1c2ccccc2CCc2ccccc21 [amitriptyline] | inhibit its thiamine transport activity | destabilize the transporter in a concentration-dependent manner |  |
| Cc1ccc(NC(=O)c2ccc(CN3CCN(C)CC3)cc2)cc1Nc1nccc(-c2cccnc2)n1 [imatinib] | interfered with thiamine-uptake through hSLC19A3; also recorded: inhibitory effect comparable to the one of fedratinib | strongly stabilized hSLC19A3 | Kd [2]: 4400 ± 500 nM |
| CN(C)CCCN1c2ccccc2CCc2ccccc21 [imipramine] | inhibit its thiamine transport activity | destabilize the transporter in a concentration-dependent manner |  |
| CCc1nc(N)nc(N)c1-c1ccc(Cl)cc1 [pyrimethamine] |  |  | ΔTm at 20 µM ([2]; read-out: ΔTm (thermostabilisation)): 9.3 ± 0.5 °C |
| COc1cc(Cc2cnc(N)nc2N)cc(OC)c1OC [trimethoprim] |  |  | substrate status at the transporter [3]: xenobiotic substrates of the transporter |
| CN(C)CCC=C1c2ccccc2COc2ccccc21 [doxepin] | inhibit its thiamine transport activity | destabilize the transporter in a concentration-dependent manner |  |
| nanobody Nb3.4 (VHH) VHH: QVQLVESGGGLVQAGDSLRLSCAASGLTFSRYDMAWFRQAPGKEREFVAAITWTGSITDYADSVKGRFTISRDNAKNTIYLQMNSLKPEDTAVYYCAAAQVPYGSTLKFNLRTLFGSWGQGTQVTVSS |  |  | Kd [4]: 280 nM |
| nanobody Nb3.7 (VHH) VHH: QVQLVESGGGLVQPGDSLRLSCAASGRTFSINAMAWFRQAPGKEREYVAQISWTGGNTYYAESVKGRFTISRDNAKNTVYLQMISLKPEDTAVYYCAADSGGIRLGASRWNYWGQGTQVTVSS |  |  | Kd [4]: 110 nM |
| nanobody Nb3.3 (VHH) VHH: QVQLVESGGGLVQAGDSLRLSCAASGRTFSNYYMAWFRQAPGKEREFVAAIRLSYGSTYYADSVRGRFTISKDNAKNTVNLRMNSLKSEDTAIYYCAAAEDRWALAVRTATTYNYWGQGTQVTVSS |  |  | Kd [4]: 200 nM |
